Laboratory results: patent EP4775582A1, “MACROCYCLIC COMPOUND AND ANTIBODY-DRUG CONJUGATE THEREOF” (Genfleet Therapeutics (Shanghai) Inc., priority 2023, dated 2025)
pIC50: −log10 of the molar value. Converted amounts (≈) assume the structure as drawn. Like-named read-outs stand apart in the source and are kept apart here.

Assays:
H441 p-ERK = assay: Cell p-ERK assay (HTRF), NCI-H441 cells; assay type: cell-based, human; settings: Homo sapiens; NCI-H441 cells (KRAS G12V), 3 h incubation
In short: (§1)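 AsPC-1 (10000/well) or NCI-H441 (20000/well) cells were seeded overnight and then exposed to compound for 3 h at 37 °C. Lysates were probed for ERK phospho-T202/Y204 by HTRF with a 4-hour antibody incubation. IC50 values came from four-parameter fits of inhibition against log concentration.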

AsPC-1 p-ERK = assay: Cell p-ERK assay (HTRF), AsPC-1 cells; assay type: cell-based, human; settings: Homo sapiens; for pIC50: ASPC1, AsPC-1 cells (KRAS G12D), 3 h incubation, read-out: AsPC-1 p-ERK IC50
In short: as §1

AsPC-1 cells = assay: 3D cell proliferation assay (CellTiter Glo-3D), AsPC-1; assay type: cell-based, human; settings: Homo sapiens, ASPC1, 120 h; for pIC50: AsPC-1 cells (KRAS G12D), 3D, 2% FBS, 5 days, read-out: AsPC-1 AP IC50
In short: (§2)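 Cells seeded at 800 per well (AsPC-1, NCI-H441) in 2% FBS medium and incubated overnight at 37 °C, 5% CO2. Compounds added next day from 10× stock, then 5 days' further culture. Viability read by CellTiter-Glo luminescence; IC50 from four-parameter fit of inhibition versus log concentration.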

KRAS G12V-cRAF = KRAS G12V-cRAF (Homo sapiens, UniProt P01116+P62937, G12V); assay: Assay for binding of KRAS to cRAF (HTRF, with Cyclophilin A), KRAS G12V; settings: for IC50: KRAS G12V-cRAF binding assay(nM), GPPNP-KRAS G12V, IC50 values; for pIC50: read-out: KRAS G12V-cRAF binding assay, GPPNP-KRAS G12V, IC50 values
Experimental: (§3) The plate was centrifuged at 1000 rpm for 1 min and then incubated in the thermostatic incubator at 20 °C for 30 min. […] The plate was centrifuged at 1000 rpm for 1 min and then incubated in the thermostatic incubator at 20 °C for 60 min. […] The working solution was added to the aforementioned assay plate at 5 µL/well. The plate was centrifuged at 1000 rpm for 1 min and then incubated in the thermostatic incubator at 20 °C for 60 min.

KRAS WT-cRAF = KRAS WT-cRAF (Homo sapiens, UniProt P01116+P62937); assay: Assay for binding of KRAS to cRAF (HTRF, with Cyclophilin A), KRAS WT; settings: for IC50: KRAS WT-cRAF binding assay(nM), GPPNP-KRAS WT, IC50 values; for pIC50: read-out: KRAS WT-cRAF binding assay, GPPNP-KRAS WT, IC50 values
Experimental: as §3

NCI-H441 cells = assay: 3D cell proliferation assay (CellTiter Glo-3D), NCI-H441; assay type: cell-based, human; settings: Homo sapiens, 120 h, NCI-H441 cells (KRAS G12V), 2% FBS, 5 days, read-out: H441 AP IC50
In short: as §2

[1] = Solubility experiment (HPLC, external standard); assay type: physicochemical; settings: for solubility at 24 h: pH 7.4 medium, pH 7.4, pH 7.4 medium, 37 °C
In short: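 Solid compound (about 1 mg per 1 mL medium) was shaken at 37 °C for 24 h in pH 1.2, 4.5 or 7.4 media, then centrifuged and the supernatant diluted with acetonitrile/water 50/50. Concentration in μg/mL was found by HPLC against an external standard prepared from a DMSO stock.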

[2] = Human liver microsomal stability experiment; assay type: in vitro ADME; settings: human liver microsomes; for half-life: NADPH, 37 °C; for CLint scaled: 45 mg/g, 20.7 g/kg scaling
Experimental: This experiment was intended to investigate the metabolic stability of the test compounds in human liver microsomes. The materials used in the experiment included 10 mM solutions of the test compounds and the control sample, human liver microsomes, and reduced nicotinamide adenine dinucleotide phosphate (NADPH) powder. In the experiment, a 100 mM potassium phosphate buffer was used as the buffer system.
The liver microsome working solution was prepared by diluting the liver microsome stock solution to 0.75 mg/mL using the 100 mM potassium phosphate buffer. Then, 5 µL of the 10 mM stock solution of the test compound was taken, and 195 µL of methanol was added. The mixture was well mixed to prepare a working solution A with a concentration of 0.25 mM. Subsequently, the working solution A was diluted to 1.5 µM using the liver microsome working solution to prepare a compound-liver microsome mixed solution. Additionally, NADPH powder was dissolved in 100 mM potassium phosphate buffer to prepare a 6 mM NADPH solution. The compound-liver microsome mixed solution was dispensed into a 96-well plate at 30 µL/well, with labeled time points of 0 min, 30 min, and 60 min. For 0-min samples, 180 µL of acetonitrile containing 100 ng/mL tolbutamide and 15 µL of the NADPH solution were added directly. The 96-well plate and the NADPH solution were then preheated under a 37 °C water bath for 5 min. After the preheating, 15 µL of the NADPH solution was added to each of the 30-min and 60-min sample wells. The plate was gently shaken for mixing and then incubated under the 37 °C water bath for the corresponding time. After the incubation was completed, 180 µL of acetonitrile containing 100 ng/mL tolbutamide was added to each sample well. The plate was sealed with a sealing film, shaken for 10 min (800 rpm/min), and then centrifuged for 15 min (4000 rpm). After the centrifugation, 50 µL of the supernatant was taken and added to a 96-well plate containing 150 µL of deionized water, and then the plate was sealed and shaken for 10 min (800 rpm) for uniform mixing. Subsequently, sample analysis was performed using liquid chromatography-tandem mass spectrometry (LC-MS/MS). […] For humans, the microsome protein-to-liver weight ratio was 45 mg/g, and the liver-to-body weight ratio was 20.7 g/kg.

Chain of KRAS WT-cRAF (P01116 1-188 isoform P01116-2): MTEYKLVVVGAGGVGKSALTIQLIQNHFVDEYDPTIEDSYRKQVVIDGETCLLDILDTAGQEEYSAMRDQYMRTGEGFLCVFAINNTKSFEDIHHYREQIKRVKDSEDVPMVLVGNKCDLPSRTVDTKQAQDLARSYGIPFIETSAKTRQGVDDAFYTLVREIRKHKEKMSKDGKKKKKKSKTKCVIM
Chain of KRAS WT-cRAF (P62937 whole entry): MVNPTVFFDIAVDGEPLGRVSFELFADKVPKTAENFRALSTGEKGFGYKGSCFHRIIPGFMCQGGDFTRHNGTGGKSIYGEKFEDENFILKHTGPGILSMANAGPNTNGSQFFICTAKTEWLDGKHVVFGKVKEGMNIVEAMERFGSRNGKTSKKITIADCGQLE
Chain of KRAS G12V-cRAF (P01116 1-188 isoform P01116-2 G12V): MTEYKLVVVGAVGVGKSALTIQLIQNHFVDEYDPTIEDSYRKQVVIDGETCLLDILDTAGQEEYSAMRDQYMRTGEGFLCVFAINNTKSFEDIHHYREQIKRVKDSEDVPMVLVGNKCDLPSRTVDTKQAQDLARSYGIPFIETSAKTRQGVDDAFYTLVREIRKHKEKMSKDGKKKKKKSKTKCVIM
Chain of KRAS G12V-cRAF (P62937 whole entry): as the sequence (P62937 whole entry) above

Row | SMILES | pIC50 (H441 p-ERK) | pIC50 (AsPC-1 p-ERK) | pIC50 (AsPC-1 cells) | IC50 (KRAS G12V-cRAF) | IC50 (KRAS WT-cRAF) | pIC50 (NCI-H441 cells) | solubility at 24 h [1] | IC50 (AsPC-1 p-ERK; ASPC1, 3 h, read-out: AsPC-1 p-ERK IC50(nM)) | IC50 (AsPC-1 cells; read-out: AsPC-1 AP IC50(nM)) | pIC50 (KRAS G12V-cRAF) | pIC50 (KRAS WT-cRAF) | Solubility at pH 7.4 (µg/mL) ([1]; ph 7.4 medium, pH 7.4, 1440 min) | half-life [2] | CLint scaled [2]
1 | COCCn1c(-c2cc(C#CCN3CCC(C#N)(CO)CC3)c[n+]([O-])c2C(C)OC)c2c3cc(ccc31)-c1csc(n1)CC(NC(=O)C1C(C)C1C)C(=O)N1CCCC(N1)C(=O)OCC(C)(C)C2 (atropisomer, axis not shown; (Ra)) [Compound Z42-1, 5-(3-(4-cyano-4-(hydroxymethyl)piperidin-1-yl)prop-1-yn-1-yl)-(Ra)-3-((6^3S,4S,Z)-4-((1r,2R,3S)-2,3-dimethylcyclopropane-1-carboxamido)-1^1-(2-methoxyethyl)-10,10-dimethyl-5,7-dioxo-6^1,6^2,6^3,6^4,6^5,6^6-hexahydro-1^1H-8-oxa-2(4,2)-thiazola-1(5,3)-indola-6(1,3)-pyridazinacycloundecaphane-1^2-yl)-2-((S)-1-methoxyethyl)pyridine 1-oxide] | 8.74 | 8.88 | 9.48 | 9.9 nM | 18.9 nM | 9.19 | 15.6 µg/mL (≈ 16.4 µM) | – | – | – | – | – | – | –
2 | CCn1c(-c2cc(C#CCN3CCN(C(=O)CO)CC3)cnc2C(C)OC)c2c3cc(ccc31)-c1coc(n1)CC(NC(=O)C1C3COCC31)C(=O)N1CCCC(N1)C(=O)OCC(C)(C)C2 (atropisomer, axis not shown; (Ra)) [Compound Z44, (1R,5S,6r)-N-((6^3S,4S,Z)-(Ra)-1^2-(5-(3-(4-(2-hydroxyacetyl)piperazin-1-yl)prop-1-yn-1-yl)-2-((S)-1-methoxyethyl)pyridin-3-yl)-1^1-ethyl-10,10-dimethyl-5,7-dioxo-6^1,6^2,6^3,6^4,6^5,6^6-hexahydro-1^1H-8-oxa-2(4,2)-oxazola-1(5,3)-indola-6(1,3)-pyridazinacycloundecaphane-4-yl)-3-oxabicyclo[3.1.0]hexane-6-carboxamide] | 9.38 | 8.76 | 8.92 | 11.8 nM | 25.2 nM | 9.42 | 55.8 µg/mL (≈ 61.6 µM) | – | – | – | – | – | – | –
3 | CCn1c(-c2cc(C#CCN3CCN(C(=O)CN)CC3)cnc2C(C)OC)c2c3cc(ccc31)-c1csc(n1)CC(NC(=O)C1C3COCC31)C(=O)N1CCCC(N1)C(=O)OCC(C)(C)C2 (atropisomer, axis not shown; (Ra)) [Compound Z47, (1R,5S,6r)-N-((6^3S,4S,Z)-1^1-ethyl-(Ra)-1^2-(5-(3-(4-glycylpiperazin-1-yl)prop-1-yn-1-yl)-2-((S)-1-methoxyethyl)pyridin-3-yl)-10,10-dimethyl-5,7-dioxo-6^1,6^2,6^3,6^4,6^5,6^6-hexahydro-1^1H-8-oxa-2(4,2)-thiazola-1(5,3)-indola-6(1,3)-pyridazinacycloundecaphane-4-yl)-3-oxabicyclo[3.1.0]hexane-6-carboxamide] | 9.24 | 8.63 | 8.92 | 19.3 nM | 34.4 nM | 9.12 | 109 µg/mL (≈ 118 µM) | – | – | – | – | – | – | –
4 | CCn1c(-c2cc(C#CCN3CCN(C(=O)CO)CC3)c[n+]([O-])c2C(C)OC)c2c3cc(ccc31)-c1csc(n1)CC(NC(=O)C1C(C)C1C)C(=O)N1CCCC(N1)C(=O)OCC(C)(C)C2 (atropisomer, axis not shown; (Ra)) [Compound Z48, (Ra)-3-((6^3S,4S,Z)-4-((1r,2R,3S)-2,3-dimethylcyclopropane-1-carboxamido)-1^1-ethyl-10,10-dimethyl-5,7-dioxo-6^1,6^2,6^3,6^4,6^5,6^6-hexahydro-1^1H-8-oxa-2(4,2)-thiazola-1(5,3)-indola-6(1,3)-pyridazinacycloundecaphane-1^2-yl)-5-(3-(4-(2-hydroxyacetyl)piperazin-1-yl)prop-1-yn-1-yl)-2-((S)-1-methoxyethyl)pyridine 1-oxide] | 8.78 | 8.33 | 8.30 | 9.05 nM | 31.3 nM | 8.70 | 71.2 µg/mL (≈ 77.1 µM) | – | – | – | – | – | – | –
5 | CCn1c(-c2cc(C#CCN3CCS(=O)(=O)CC3)cnc2[C@H](C)NC)c2c3cc(ccc31)-c1csc(n1)C[C@H](NC(=O)[C@H]1[C@H](C)[C@@H]1C)C(=O)N1CCC[C@H](N1)C(=O)OCC(C)(C)C2 (atropisomer, axis not shown; (Ra)) [Compound Z66, (1r,2R,3S)-N-((6^3S,4S,Z)-(Ra)-1^2-(5-(3-(1,1-dioxidothiomorpholino)prop-1-yn-1-yl)-2-((S)-1-(methylamino)ethyl)pyridin-3-yl)-1^1-ethyl-10,10-dimethyl-5,7-dioxo-6^1,6^2,6^3,6^4,6^5,6^6-hexahydro-1^1H-8-oxa-2(4,2)-thiazola-1(5,3)-indola-6(1,3)-pyridazinacycloundecaphane-4-yl)-2,3-dimethylcyclopropane-1-carboxamide] | 9.49 | – | – | – | – | 9.96 | – | 0.3 nM | 0.12 nM | 8.07 | 7.71 | 66.54 µg/mL | – | –
6 | CCn1c(-c2cc(C#CCN3CCC(C#N)(CN)CC3)cnc2[C@H](C)OC)c2c3cc(ccc31)-c1csc(n1)C[C@H](NC(=O)[C@H]1[C@H](C)[C@@H]1C)C(=O)N1CCC[C@H](N1)C(=O)OCC(C)(C)C2 (atropisomer, axis not shown; (Ra)) [Compound Z181, (1r,2R,3S)-N-((6^3S,4S,Z)-1^2-(Ra)-(5-(3-(4-(aminomethyl)-4-cyanopiperidin-1-yl)prop-1-yn-1-yl)-2-((S)-1-methoxyethyl)pyridin-3-yl)-1^1-ethyl-10,10-dimethyl-5,7-dioxo-6^1,6^2,6^3,6^4,6^5,6^6-hexahydro-1^1H-8-oxa-2(4,2)-thiazola-1(5,3)-indola-6(1,3)-pyridazinacycloundecaphan-4-yl)-2,3-dimethylcyclopropane-1-carboxamide] | – | – | – | – | – | – | – | – | – | 7.88 | 7.44 | – | 43.4 min | 36.9 mL/min/kg
7 | CCn1c(-c2cc(C#CCN3CCC(C#N)(CN)CC3)cnc2[C@H](C)OC)c2c3cc(ccc31)-c1coc(n1)C[C@H](NC(=O)[C@H]1[C@H](C)[C@@H]1C)C(=O)N1CCC[C@H](N1)C(=O)OCC(C)(C)C2 (atropisomer, axis not shown; (Ra)) [Compound Z182] | – | – | – | – | – | – | – | – | – | 7.89 | 7.46 | – | 16.4 min | 97.9 mL/min/kg
